Data from PMC7367873, “Dissecting the sequence determinants for dephosphorylation by the catalytic subunits of phosphatases PP1 and PP2A” (Nature Communications, 2020).

Tested on: PP1c/PP2Ac
Experiment: PP1c versus PP2Ac specificity of p-sites (pairwise comparison / hierarchical clustering of phosphoproteomic data)
Format: biochemical, human
Details: for share of substrates specific to the phosphatase: hierarchical clustering; for number of specific sequences (cluster size): hierarchical clustering after one-way ANOVA
Experimental: For phosphoproteomics, HeLa Kyoto cells were incubated with 20 nM Calyculin A (CST, #9902) for 10–15 min. This time point was determined empirically to yield maximal phosphatase inhibition without cells showing pleiotropic effects. Subsequently, cells were placed on ice and washed twice with cold PBS and scraped in lysis buffer (100 mM NaCl, 10 mM Tris, 0.1% IGEPAL, 1 mM EDTA, 1 mM EGTA, 20 nM Calyculin A, 1x cOmplete Mini protease inhibitor cocktail (Sigma), 1 mM DTT, 1 mM MnCl2, pH 7.5). After 10 pushes through an injection needle (21 G, BD), lysate was cleared from the insoluble fraction by centrifugation (10 min, 10^4 rcf, 4 °C). Protein concentration was then determined by a Bradford Assay and equal amounts of 1 mg total protein were incubated with recombinant PP1c/PP2Ac or buffer at a final phosphatase concentration of 1 µM in a total volume of 200 µL for 1 h at 30 °C. Lysates were then immediately placed on ice. PhosStop […] (Roche) was added and proteins were denatured by adding urea to a final concentration of 8 M taking into account the volume increase. Samples were then snap-frozen in liquid nitrogen for storage and subsequent MS analysis.
Downstream analysis of the phosphoproteomic datasets was carried out using the software tool Perseus[66]. For analysis of phosphoproteomic experiments, row-wise, median-normalized data (see previous section) was linked to known regulatory sites by PhosphoSitePlus entries and categorical columns for treatments were assigned. Reverse peptides and potential contaminants were filtered. Next, categorical columns for biological functions and treatments were assigned. TMT reporter intensities were then transformed into log2. At this point, all data were then filtered for valid values in all three replicates of at least one condition. Next, the distribution of TMT reporter intensities was assessed visually by plotting count-based histogramms and in a multiscatter plot using the Pearson correlation as an estimate of reproducibility. Next, NA (=not available: missing) values were replaced by imputation from a normal distribution (width 0.3, down-shift 1.8, per column). The data quality was routinely assessed by two means: First, by plotting a histogram of peptide length vs. counts and visualization of imputed values to confirm a normal distribution of the data, and secondly by principal component analysis (default settings in Perseus) to judge the sample grouping.
For hierarchical clustering, the results of the one-way ANOVA were processed for two more steps in Perseus: first data were filtered for significant hits from the one-way ANOVA and then subjected to z-transformation. Hierarchical clustering images were produced using Euclidean distance, 300 clusters and 10 rounds of iteration.
Also all further data processing for protein enrichment and extraction of protein sequences in positions −5 to +5 relative to the p-sites of interest for subsequent motif analysis was performed using RStudio with R v3.3.2 using the packages tidyverse and BioStrings. In order to study the sequence specificity of PP1c and PP2Ac on the protein level, position specific probability matrices, representing the relative occurrence for each amino acid surrounding pSer/pThr were produced by extracting sequence information in positions −5 to +5 for all PP1c/PP2Ac-sensitive class I p-sites. Next, the count for each amino acid in each position was divided by the total of all counts for a certain position, resulting in relative abundance. […] Importantly, amino acids with less than 25 counts in PP1-sensitive/-insensitive or PP2A-sensitive/insensitive comparisons were excluded. For calculating a heat map directly comparing PP1c against PP2Ac, these fold changes were divided. […] Obtained p-values were adjusted for multiple testing using the method of Benjamini and Hochberg.
PP1c/PP2Ac-sensitive class I sites were divided into three classes as illustrated for PP1c in Supplementary Fig. 4c. […]

share of substrates specific to the phosphatase | Substance | number of specific sequences (cluster size)
28% | PP1c: recombinant catalytic subunit of PP1 | 777 sequences
24% | PP2Ac: His-tagged recombinant PPP2CA ΔL309, purchased from Cayman Chemical | 663 sequences
